Laboratory results: patent EP0918774B9, “ANDROGEN RECEPTOR MODULATOR COMPOUNDS AND METHODS” (LIGAND PHARMACEUTICALS INCORPORATED, priority 1996, dated 1997)
Like-named read-outs stand apart in the source and are kept apart here.

Columns and labels:
[1] = molecular target: T1, human AR (Homo sapiens, UniProt P10275); test: cell-based; type: cell-based
T1 construct: expressed in transfected cells; host or cells: CV-1 cells (African green monkey kidney fibroblasts), transient calcium phosphate transfection
T1 sequence (P10275 1-920): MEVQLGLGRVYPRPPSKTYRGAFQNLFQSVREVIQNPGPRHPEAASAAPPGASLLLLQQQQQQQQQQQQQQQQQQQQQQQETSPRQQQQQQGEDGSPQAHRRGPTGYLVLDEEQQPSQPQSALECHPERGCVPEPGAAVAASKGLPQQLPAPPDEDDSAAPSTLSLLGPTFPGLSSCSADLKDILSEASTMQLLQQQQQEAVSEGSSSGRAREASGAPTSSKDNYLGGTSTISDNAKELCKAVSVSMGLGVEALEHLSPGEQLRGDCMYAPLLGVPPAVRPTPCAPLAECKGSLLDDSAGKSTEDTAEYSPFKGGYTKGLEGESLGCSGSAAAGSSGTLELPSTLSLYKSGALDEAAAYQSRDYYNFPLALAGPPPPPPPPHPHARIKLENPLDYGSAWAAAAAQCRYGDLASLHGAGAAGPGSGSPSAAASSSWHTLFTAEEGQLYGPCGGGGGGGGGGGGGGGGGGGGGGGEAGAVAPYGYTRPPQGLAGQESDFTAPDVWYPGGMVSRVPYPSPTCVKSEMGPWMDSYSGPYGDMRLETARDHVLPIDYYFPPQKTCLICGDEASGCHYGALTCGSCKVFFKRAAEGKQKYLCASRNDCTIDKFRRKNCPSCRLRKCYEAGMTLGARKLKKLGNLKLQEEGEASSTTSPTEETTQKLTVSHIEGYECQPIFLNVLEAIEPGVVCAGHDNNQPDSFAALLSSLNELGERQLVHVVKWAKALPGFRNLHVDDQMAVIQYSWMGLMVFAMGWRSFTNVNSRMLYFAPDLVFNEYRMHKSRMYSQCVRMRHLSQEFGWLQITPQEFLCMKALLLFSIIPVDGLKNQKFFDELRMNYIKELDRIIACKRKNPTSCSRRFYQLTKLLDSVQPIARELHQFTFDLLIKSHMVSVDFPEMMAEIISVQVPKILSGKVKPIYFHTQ
Source text: The co-transfection assay provides a method for identifying functional agonists and partial agonists which mimic, or antagonists which inhibit, the effect of native hormones, and quantifying their activity for responsive IR proteins. In this regard, the co-transfection assay mimics an in vivo system in the laboratory. Importantly, activity in the co-transfection assay correlates very well with known in vivo activity, such that the co-transfection assay functions as a qualitative and quantitative predictor of a tested compounds in vivo pharmacology. See, e.g., T. Berger et al. 41 J. Steroid Biochem. Molec.
(§1) CV-1 cells (African green monkey kidney fibroblasts) were cultured in the presence of Dulbecco's Modified Eagle Medium (DMEM) supplemented with 10% charcoal resinstripped fetal bovine serum then transferred to 96-well microtiter plates one day prior to transfection.
The reporter plasmid, MTV-LUC, contains the cDNA for firefly luciferase (LUC) under control of the mouse mammary tumor virus (MTV) long terminal repeat, a conditional promoter containing an androgen response element. See e.g, Berger et al. supra. In addition, pRS-β-Gal, coding for constitutive expression of E. colβ-galactosidase (β-Gal), was included as an internal control for evaluation of transfection efficiency and compound toxicity.
(§2) Three to four replicates were used for each sample.
(§3) After 40 hours, the cells were washed with PBS, lysed with a Triton X-100-based buffer and assayed for LUC and β-Gal activities using a luminometer or spectrophotometer, respectively. For each replicate, the normalized response (NR) was calculated as: LUC response/β-Gal rate where β-Gal rate = β-Gal•1x10^-5/β-Gal incubation time.

[2] = molecular target: T2, PR (Homo sapiens, UniProt P06401); test: Co-transfection assay, PR agonist mode; type: cell-based; parameters: expressed in transfected cells; host or cells: CV-1 cells
T2 sequence (P06401 1-933): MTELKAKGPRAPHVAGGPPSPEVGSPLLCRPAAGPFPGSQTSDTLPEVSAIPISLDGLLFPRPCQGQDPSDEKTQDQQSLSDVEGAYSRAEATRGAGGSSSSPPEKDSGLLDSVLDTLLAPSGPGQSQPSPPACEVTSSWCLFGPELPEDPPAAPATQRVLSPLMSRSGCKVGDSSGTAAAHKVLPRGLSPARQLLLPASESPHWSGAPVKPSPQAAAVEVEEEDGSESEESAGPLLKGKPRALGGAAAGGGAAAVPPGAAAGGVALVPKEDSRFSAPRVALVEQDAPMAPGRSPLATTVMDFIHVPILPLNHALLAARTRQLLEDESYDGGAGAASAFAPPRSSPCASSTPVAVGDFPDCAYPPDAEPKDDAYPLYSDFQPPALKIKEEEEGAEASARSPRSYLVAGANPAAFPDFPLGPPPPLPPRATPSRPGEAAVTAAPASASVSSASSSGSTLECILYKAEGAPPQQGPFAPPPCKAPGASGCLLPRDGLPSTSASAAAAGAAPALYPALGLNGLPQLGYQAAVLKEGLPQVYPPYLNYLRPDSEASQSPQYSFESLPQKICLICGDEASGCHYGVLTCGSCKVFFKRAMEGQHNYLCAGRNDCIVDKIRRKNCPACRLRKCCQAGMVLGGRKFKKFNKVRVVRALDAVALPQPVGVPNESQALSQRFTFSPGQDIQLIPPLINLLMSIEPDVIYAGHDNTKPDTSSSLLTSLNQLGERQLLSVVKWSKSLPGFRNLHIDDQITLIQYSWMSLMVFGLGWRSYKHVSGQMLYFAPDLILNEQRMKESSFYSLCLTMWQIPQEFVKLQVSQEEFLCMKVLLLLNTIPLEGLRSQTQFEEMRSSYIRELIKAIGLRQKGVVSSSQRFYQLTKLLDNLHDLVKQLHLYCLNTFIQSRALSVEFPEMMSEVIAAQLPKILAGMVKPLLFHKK
Protocol: as §1, §2, §3

Row | SMILES | AR Agonist CV-1 Cells Efficacy (%) [1] | AR Antagonist CV-1 Cells Efficacy (%) [1] | EC50 [1] | IC50 [1] | EC50 ([1]; read-out: AR Potency Agon) | EC50 [2] | AR Antagonist CV-1 Cells Efficacy (%) ([1]; % of maximal inhibition, fixed DHT at EC50, na = not active) | AR Agonist CV-1 Cells Efficacy (%) ([1]; percent maximal response relative to reference agonist DHT, na = not active) | EC50 ([1]; read-out: AR Potency Agon, Table 2, na = not active)
1 | CC12CCCN1c1cc3nc(O)cc(C(F)(F)F)c3cc1CC2 (racemic) [Compound 101, (R/S)-6,7,7a,11-Tetrahydro-7a-methyl-4-trifluoromethyl-2-pyridono[5,6-g]pyrrolidino[1,2-a]quinoline] | na (key: na: not active (i.e. efficacy of <20 and potency of >10,000)) | 80% | > 10 µM | 0.362 µM | > 10 µM | > 10 µM |  |  | 
2 | CC12CCCN1c1cc3[nH]c(=O)c(F)c(C(F)(F)F)c3cc1CC2 (racemic) [Compound 102, (R/S)-3-Fluoro-6,7,7a,11-tetrahydro-7a-methyl-4-trifluoromethyl-2-pyridono[5,6-g]pyrrolidino[1,2-a]quinoline] |  |  | > 10 µM | 0.029 µM |  | > 10 µM | 86% | na (not active (i.e. efficacy of <20 and potency of >10,000)) | > 10 µM
